The text below walks through data of ChEMBL document CHEMBL1817623, “Sesterterpenes from the tropical sponge Coscinoderma sp” (J Nat Prod, 2011).

Converted amounts (≈) assume the structure as drawn.

One assay concerns K562. Put plainly: Cytotoxicity against human K562 cells. It counts as functional. The following applies: read-out: LC50 (the source's name).
A further assay concerns the target T1, Sortase A (Staphylococcus aureus, UniProt Q9S446).
T1 sequence (Q9S446 whole entry): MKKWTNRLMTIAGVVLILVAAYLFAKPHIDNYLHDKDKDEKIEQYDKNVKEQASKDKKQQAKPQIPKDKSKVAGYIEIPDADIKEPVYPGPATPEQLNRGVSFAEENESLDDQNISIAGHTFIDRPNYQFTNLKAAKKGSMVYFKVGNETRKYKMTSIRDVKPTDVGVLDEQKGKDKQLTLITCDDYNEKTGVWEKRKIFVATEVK
The experiment in a line: Inhibition of recombinant Staphylococcus aureus ATCC 6538p sortase lacking the N-terminal membrane anchor domain expressed in Escherichia coli cells TOP10 using Dabcyl-QALPETGEE-Edans substrate measured after 1 hr by fluorescence S13 spectrophotometry.

In another assay the target is Isocitrate lyase (Candida albicans, UniProt Q9P8Q7). Put plainly: Inhibition of Candida albicans isocitrate lyase.
The target in assay [1] is Sodium/potassium-transporting ATPase. Put plainly: Inhibition of human Na(+)/K(+) ATPase assessed as reduction in ouabain-sensitive and K(+)-dependent cleavage of fluorescent pseudosubstrate 3-O-methylfluorescein phosphate by fluorometric method. It counts as protein-complex assay.
In the next assay the test system is Staphylococcus aureus. The experiment in a line: Antimicrobial activity against Staphylococcus aureus ATCC 6538p. The assay is classed as functional.
The next assay has as its system Bacillus subtilis. Put plainly: Antimicrobial activity against Bacillus subtilis ATCC 6633. The assay is classed as functional.
A further assay deals with Micrococcus luteus. Put plainly: Antimicrobial activity against Micrococcus luteus IFO 12708. The assay is classed as functional.
Another assay has as its system Salmonella typhimurium. Put plainly: Antimicrobial activity against Salmonella Typhimurium ATCC 14028. It counts as functional, Salmonella enterica subsp. enterica serovar Typhimurium. The following applies: Salmonella enterica.
A further assay deals with Proteus vulgaris. The experiment in a line: Antimicrobial activity against Proteus vulgaris ATCC 3851. The assay is classed as functional.
The test system of another assay is Escherichia coli. Put plainly: Antimicrobial activity against Escherichia coli ATCC 35270. The assay is classed as functional.
The test system of the next assay is Aspergillus fumigatus. The experiment in a line: Antimicrobial activity against Aspergillus fumigatus HIC 6094. It counts as functional.
Another assay concerns Trichophyton rubrum. The experiment in a line: Antimicrobial activity against Trichophyton rubrum IFO 9185. It counts as functional.
In assay [2] the test system is Trichophyton mentagrophytes. Put plainly: Antimicrobial activity against Trichophyton mentagrophytes IFO 40996. The assay is classed as functional.
For another assay, the system named is Candida albicans. The experiment in a line: Antimicrobial activity against Candida albicans ATCC 10231. It counts as functional.

Chain of Isocitrate lyase (Q9P8Q7 whole entry): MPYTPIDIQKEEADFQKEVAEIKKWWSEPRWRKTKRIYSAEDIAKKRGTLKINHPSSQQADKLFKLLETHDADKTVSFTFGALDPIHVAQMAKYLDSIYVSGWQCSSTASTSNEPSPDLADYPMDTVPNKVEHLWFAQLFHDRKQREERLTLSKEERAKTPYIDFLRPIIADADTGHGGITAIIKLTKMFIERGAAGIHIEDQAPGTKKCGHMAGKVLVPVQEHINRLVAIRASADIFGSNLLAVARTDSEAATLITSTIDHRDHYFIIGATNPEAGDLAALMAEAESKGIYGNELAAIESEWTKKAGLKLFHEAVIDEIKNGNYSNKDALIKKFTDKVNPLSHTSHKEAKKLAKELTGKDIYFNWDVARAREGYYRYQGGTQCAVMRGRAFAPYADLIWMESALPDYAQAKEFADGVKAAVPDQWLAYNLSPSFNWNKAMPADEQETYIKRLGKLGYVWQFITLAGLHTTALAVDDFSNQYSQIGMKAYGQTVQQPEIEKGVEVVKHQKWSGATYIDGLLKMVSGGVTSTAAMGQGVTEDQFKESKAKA

`CO[C@@H]1O[C@H](OC)[C@](O)(CC[C@H]2/C(=C/OS(=O)(=O)[O-])CC[C@H]3[C@]2(C)CC[C@H]2C(C)(C)CCC[C@]32C)[C@H]1O.[Na+]`: in the assay with K562, the CC50 was 15 µM. Also, the values for the IC50 (at Sortase A; against Isocitrate lyase; in [1]) were > 200 µM, 75 µM and 6 µM, respectively. Further, the MIC against Staphylococcus aureus, in the assay on Bacillus subtilis, with Micrococcus luteus, with Salmonella typhimurium, against Proteus vulgaris and in the assay with Escherichia coli was > 100 µg/mL each time. Also, the MIC (with Aspergillus fumigatus; against Trichophyton rubrum; in [2]; in the assay on Candida albicans) was > 100 µg/mL in each case.

Consider `CC1=CC[C@H]2C(C)(C)CCC[C@]2(C)[C@H]1C[C@@H](OS(=O)(=O)[O-])[C@H](C)CCC/C(C)=C\Cc1cc(O)ccc1O.[Na+]`, for which the CC50 in the assay on K562 was > 200 µM. Moreover, the IC50 at Sortase A came out at 100 µM; on Isocitrate lyase, 52 µM; in assay [1], 5 µM. In addition, the MIC against Staphylococcus aureus, with Bacillus subtilis, against Micrococcus luteus, against Salmonella typhimurium, against Proteus vulgaris and against Escherichia coli was > 100 µg/mL each time. The MIC (in the assay on Aspergillus fumigatus; against Trichophyton rubrum; in assay [2]; with Candida albicans) was > 100 µg/mL each time.

As for `CC1(C)CCC[C@]2(C)[C@H]3CC/C(=C\OS(=O)(=O)[O-])[C@H](CCC4=CC(=O)O[C@@H]4O)[C@@]3(C)CC[C@@H]12.[Na+]`, the CC50 in the assay on K562 was determined as 59 µM. In addition, the IC50 at Sortase A was > 200 µM; in assay [1], 5 µM. The MIC against Staphylococcus aureus, against Bacillus subtilis, against Micrococcus luteus, with Salmonella typhimurium, against Proteus vulgaris and against Escherichia coli was > 100 µg/mL throughout. The MIC (in the assay with Aspergillus fumigatus; against Trichophyton rubrum; in [2]; against Candida albicans) was > 100 µg/mL in each case.

`CC1(C)CCC[C@]2(C)[C@H]3CC/C(=C\OS(=O)(=O)[O-])[C@H](CCC4=CC(=O)OC4)[C@@]3(C)CC[C@@H]12.[Na+]`: in the assay with K562, the CC50 came out at 56 µM. Further, the IC50 at Sortase A is > 200 µM; at Isocitrate lyase it was 150 µM; in [1], 19 µM. Besides, the MIC against Staphylococcus aureus, in the assay on Bacillus subtilis, against Micrococcus luteus, against Salmonella typhimurium, against Proteus vulgaris and in the assay with Escherichia coli was > 100 µg/mL in each case. Moreover, the MIC (against Aspergillus fumigatus; in the assay on Trichophyton rubrum; in assay [2]; against Candida albicans) was > 100 µg/mL each time.

Turning to `CO[C@@H]1C=C(CC[C@H]2/C(=C/OS(=O)(=O)[O-])CC[C@H]3[C@]2(C)CC[C@H]2C(C)(C)CCC[C@]32C)C(=O)O1.[Na+]`, the CC50 with K562 worked out at 16 µM. Also, the results for the IC50 (at Sortase A; against Isocitrate lyase; in assay [1]) were > 200 µM, 64 µM and 6 µM, respectively. Besides, the MIC with Staphylococcus aureus, against Bacillus subtilis, against Micrococcus luteus, in the assay on Salmonella typhimurium, against Proteus vulgaris and with Escherichia coli was > 100 µg/mL throughout. For the same compound, the MIC (in the assay with Aspergillus fumigatus; against Trichophyton rubrum; in assay [2]; in the assay on Candida albicans) was > 100 µg/mL throughout.

As to `CO[C@H]1C=C(CC[C@H]2/C(=C/OS(=O)(=O)[O-])CC[C@H]3[C@]2(C)CC[C@H]2C(C)(C)CCC[C@]32C)C(=O)O1.[Na+]`, the CC50 in the assay on K562 amounted to 45 µM. Also, the results for the IC50 (at Sortase A; at Isocitrate lyase; in assay [1]) were > 200 µM, 165 µM and 17 µM, respectively. The MIC in the assay on Staphylococcus aureus, against Bacillus subtilis, against Micrococcus luteus, against Salmonella typhimurium, with Proteus vulgaris and against Escherichia coli was > 100 µg/mL throughout. The MIC (against Aspergillus fumigatus; in the assay on Trichophyton rubrum; in assay [2]; in the assay on Candida albicans) was > 100 µg/mL each time.

On to `CO[C@H]1C=C(CC[C@H]2/C(=C/OS(=O)(=O)[O-])CC[C@H]3[C@]2(C)CC[C@H]2C(C)(C)CCC[C@]32C)[C@@H](OC)O1.[Na+]`, for which the CC50 with K562 stood at 49 µM. Besides, the IC50 on Sortase A is > 200 µM; against Isocitrate lyase it was 87 µM; in assay [1] it was 14 µM. The MIC in the assay with Staphylococcus aureus, against Bacillus subtilis, against Micrococcus luteus, in the assay on Salmonella typhimurium, with Proteus vulgaris and against Escherichia coli was > 100 µg/mL each time. The MIC (in the assay on Aspergillus fumigatus; against Trichophyton rubrum; in assay [2]; against Candida albicans) was > 100 µg/mL in each case.

For `CC1(C)CCC[C@]2(C)[C@H]3CC/C(=C\OS(=O)(=O)[O-])[C@H](CCC4=CCNC4=O)[C@@]3(C)CC[C@@H]12.[Na+]`, in the assay with K562, the CC50 was 22 µM. Also, the IC50 at Sortase A was > 200 µM; on Isocitrate lyase, 62 µM; in assay [1] it was 18 µM. The MIC against Staphylococcus aureus, against Bacillus subtilis, with Micrococcus luteus, in the assay on Salmonella typhimurium, in the assay on Proteus vulgaris and against Escherichia coli was > 100 µg/mL each time. Further, the MIC (against Aspergillus fumigatus; against Trichophyton rubrum; in assay [2]; in the assay with Candida albicans) was > 100 µg/mL throughout.

For `O=C(O)CC[N+](=O)[O-]`, the half-maximal inhibitory concentration (IC50) against Isocitrate lyase was determined as 9 µM.

`CC1=CC[C@H]2C(C)(C)CCC[C@]2(C)[C@H]1C/C=C(\C)CCC/C(C)=C/Cc1cc(O)ccc1O`: in the assay with K562, the CC50 came out at 8 µM. Besides, the values for the IC50 (on Sortase A; against Isocitrate lyase; in [1]) were > 200 µM, > 200 µM and 117 µM, respectively. The MIC against Staphylococcus aureus, with Bacillus subtilis, in the assay on Micrococcus luteus, against Salmonella typhimurium, with Proteus vulgaris and in the assay with Escherichia coli was > 100 µg/mL throughout. Besides, the MIC (with Aspergillus fumigatus; with Trichophyton rubrum; in [2]; in the assay with Candida albicans) was > 100 µg/mL each time.

As to `C=C1CC[C@H]2C(C)(C)CCC[C@]2(C)[C@H]1C[C@@H](OS(=O)(=O)[O-])[C@H](C)CCC/C(C)=C/Cc1cc(O)ccc1O.[Na+]`, the CC50 in the assay on K562 is > 200 µM. Besides, the IC50 at Sortase A was 98 µM; at Isocitrate lyase, 45 µM; in assay [1] it was 4 µM. Also, the MIC (with Escherichia coli; in the assay on Aspergillus fumigatus; in the assay on Trichophyton rubrum; in [2]; in the assay with Candida albicans) was > 100 µg/mL in each case.

As to `C[C@@H]1[C@H](O)[C@@H](C)/C=C/C=C/C=C/C=C/C=C/C=C/C=C/[C@H](O[C@@H]2O[C@H](C)[C@@H](O)[C@H](N)[C@@H]2O)C[C@@H]2O[C@](O)(C[C@@H](O)C[C@@H](O)[C@H](O)CC[C@@H](O)C[C@@H](O)CC(=O)O[C@H]1C)C[C@H](O)[C@H]2C(=O)O` [AMPHOTERICIN B], the MIC with Aspergillus fumigatus was 3.13 µg/mL (≈ 3.39 µM); against Trichophyton rubrum it was 3.13 µg/mL (≈ 3.39 µM); in assay [2] it was 3.13 µg/mL (≈ 3.39 µM); against Candida albicans, 0.78 µg/mL (≈ 0.844 µM).

For `CC1(C)S[C@@H]2[C@H](NC(=O)[C@H](N)c3ccccc3)C(=O)N2[C@H]1C(=O)O` [AMPICILLIN], the MIC in the assay on Staphylococcus aureus was 1.56 µg/mL (≈ 4.46 µM); in the assay on Bacillus subtilis it was 0.39 µg/mL (≈ 1.12 µM); against Micrococcus luteus, 0.39 µg/mL (≈ 1.12 µM); against Salmonella typhimurium, 0.39 µg/mL (≈ 1.12 µM); in the assay with Proteus vulgaris, 0.39 µg/mL (≈ 1.12 µM); with Escherichia coli, 6.25 µg/mL (≈ 17.9 µM).

As for `CC1=CC[C@H]2C(C)(C)CCC[C@]2(C)[C@H]1C/C=C(/C)CCC/C(C)=C/Cc1cc(O)ccc1O` [COSCINOQUINOL], in the assay with K562, the CC50 is 8 µM. The half-maximal inhibitory concentration (IC50) at Sortase A was > 200 µM; at Isocitrate lyase, > 200 µM; in assay [1], 44 µM. The MIC was > 100 µg/mL against Staphylococcus aureus; 3.25 µg/mL (≈ 7.21 µM) in the assay on Bacillus subtilis; 25 µg/mL (≈ 55.5 µM) against Micrococcus luteus; 25 µg/mL (≈ 55.5 µM) with Salmonella typhimurium; 6.25 µg/mL (≈ 13.9 µM) against Proteus vulgaris; > 100 µg/mL against Escherichia coli. The MIC (in the assay with Aspergillus fumigatus; against Trichophyton rubrum; in assay [2]; in the assay with Candida albicans) was > 100 µg/mL in each case.

For `COc1cccc2c1C(=O)c1c(O)c3c(c(O)c1C2=O)C[C@@](O)(C(=O)CO)C[C@@H]3O[C@H]1C[C@H](N)[C@H](O)[C@H](C)O1` [DOXORUBICIN], the CC50 in the assay with K562 worked out at 13 µM.

Take `CC1=CC[C@H]2C(C)(C)CCC[C@]2(C)[C@H]1C[C@@H](OS(=O)(=O)[O-])[C@H](C)CCC/C(C)=C/Cc1cc(O)ccc1O.[Na+]` [HALISULFATE 1]: the CC50 in the assay on K562 was > 200 µM. For the same compound, the IC50 on Sortase A was found to be 36 µM; at Isocitrate lyase it was 19 µM; in assay [1] it was 3 µM. Further, the MIC in the assay on Staphylococcus aureus was 50 µg/mL; against Bacillus subtilis, 3.13 µg/mL; against Escherichia coli, > 100 µg/mL; against Aspergillus fumigatus it was > 100 µg/mL; against Trichophyton rubrum, > 100 µg/mL; in [2] it was > 100 µg/mL. Also, in the assay with Candida albicans, the MIC is > 100 µg/mL.

The IC50 is the concentration that inhibits the measured activity by half. Usually MIC stands for the least concentration at which growth counts as inhibited.
